The values below come from patent publication US10568819B2, “Skin enhancing compositions and methods” (Sytheon Limited, priority 2016, dated 2020).

One experiment has as its system Keratinocyte. The experiment is described as follows: UVA-induced delayed formation of CPDs (dCPDs) in keratinocytes. The experiment is classed as cell-based. Conditions: 25 μg/ml. The procedure:
A second study was carried out, similar to the first, except that this time the analysis was in assessing the efficacy, if any, of the presently taught aryl alkanones in reducing UVA-induced delayed formation of CPDs (dCPDs).

For a further experiment, the system named is COL4A1. The experiment is described as follows: DNA microarray gene expression, COL4A1. The format is cell-based. The source says: (§1) In light of the efficacy of the aryl alkanones ire addressing many of the molecular/biomolecular processes damaged by UV exposure, a study was undertaken to assess whether these compounds would also be effective in addressing symptoms associated with non-UV induced skin aging including chronological aging as well as disease conditions that likewise adversely affect skin processes. The studies conducted involves DNA microarray, PCR array, cell culture, enzyme inhibitory activity.

In a further experiment the test system is ITGA2. In words: PCR array gene expression, ITGA2. The format is cell-based.
Description: as §1

The target in another experiment is MMP-12 (Homo sapiens, UniProt P39900). The experiment is described as follows: MMP-12 (Elastase) inhibition. The format is biochemical. The following applies: read-out: Inhibitory concentration (IC50), MMP-12. The procedure: The methodology for the study of MMP-12 activity was as follows: • A 0.1 g sample of Compound 1 was dissolved in 1 ml DMSO, then it was diluted 100× with 1.4% randomly methylated cyclodextrin in Iris buffer (50 mM Tris pH 7.5, 150 mM NaCl, 2 mM CaCl2, 5μ ZnSO4, 0.01% Brij-35) to make a stock solution. For the analysis, different concentrations of Compound 1 were used to determine the IC50. In the well: 0.2 mM substrate, 0.25 μg/ml enzyme, and sample were mixed and read according to the reference (TSA Thring et al. BMC Complementary and Alternate Medicine, 9, 27, 2009; https://doi.org/10.1186/1472-6882-9-27)
Sequence of MMP-12 (P39900 106-470): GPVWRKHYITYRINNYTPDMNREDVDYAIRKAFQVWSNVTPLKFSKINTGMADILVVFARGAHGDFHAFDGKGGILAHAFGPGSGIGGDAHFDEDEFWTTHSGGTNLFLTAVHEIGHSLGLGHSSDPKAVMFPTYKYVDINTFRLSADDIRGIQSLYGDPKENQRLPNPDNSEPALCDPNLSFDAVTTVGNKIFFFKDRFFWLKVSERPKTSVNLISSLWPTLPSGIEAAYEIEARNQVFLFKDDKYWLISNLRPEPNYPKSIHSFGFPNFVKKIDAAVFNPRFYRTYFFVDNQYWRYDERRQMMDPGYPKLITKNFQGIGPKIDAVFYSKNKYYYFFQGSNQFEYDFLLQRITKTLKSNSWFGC

In the case of `COc1cc(CC(C(C)=O)C(C)=O)ccc1O` [Compound 1, Acetyl Zingerone], the “UVA/% Reduction in dCPDs vs. control, 0 hr. (Reduction in iCPDs)” value in the experiment on Keratinocyte (0 hr.) is recorded as “^+0 hr.: ↓14%”. Also, the “UVA/% Reduction in dCPDs vs. control, 1 hr.” value in the experiment with Keratinocyte (1 hr.) is recorded as 1 hr.: ↓43%. For the same compound, the “UVA/% Reduction in dCPDs vs. control, 2 hr.” value with Keratinocyte (2 hr.) is recorded as 2 hr.: ~0%. The “Microarray, COL4A1 gene expression” value with COL4A1 is “+1.6”. In addition, the “PCR array, ITGA2 gene expression” value in the experiment on ITGA2 is “+1.6”. Moreover, the IC50 at MMP-12 worked out at 1060 µM.
